Test results from PubChem BioAssay (NCI).
Where “and” joins values, the source holds several entries; their conditions need not be identical. Equal values may be shown once.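 Five concentrations, 48 hours, 96-well plates. GI50 is the concentration that inhibits growth by half. The concentration for full growth arrest is given as TGI.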

What was measured:
Experiment in all cases: NCI tumour cell line growth inhibition, 48 h
SR leukemia = system: SR leukemia
MOLT-4 leukemia = system: MOLT-4 leukemia
M14 melanoma = system: M14 melanoma
RPMI-8226 leukemia = system: RPMI-8226 leukemia
SK-MEL-28 melanoma = system: SK-MEL-28 melanoma
UO-31 renal = system: UO-31 renal
NCI/ADR-RES ovarian = system: NCI/ADR-RES ovarian
DU-145 prostate = system: DU-145 prostate
PC-3 prostate = system: PC-3 prostate
SF-295 CNS = system: SF-295 CNS

Row | SMILES | GI50 (SR leukemia) | TGI (SR leukemia) | GI50 (MOLT-4 leukemia) | TGI (MOLT-4 leukemia) | GI50 (M14 melanoma) | TGI (M14 melanoma) | GI50 (RPMI-8226 leukemia) | TGI (RPMI-8226 leukemia) | GI50 (SK-MEL-28 melanoma) | TGI (SK-MEL-28 melanoma) | GI50 (UO-31 renal) | TGI (UO-31 renal) | GI50 (NCI/ADR-RES ovarian) | TGI (NCI/ADR-RES ovarian) | GI50 (DU-145 prostate) | TGI (DU-145 prostate) | GI50 (PC-3 prostate) | TGI (PC-3 prostate) | GI50 (SF-295 CNS) | TGI (SF-295 CNS)
1 | CC(C)c1c(C(=O)Nc2ccccc2)c(-c2ccccc2)c(-c2ccc(F)cc2)n1CC[C@@H](O)C[C@@H](O)CC(=O)O | 4.35 µM | 39 µM | 28.8 µM | 99.2 µM | 19.1 µM | > 100 µM | 16.6 µM | > 100 µM | 18.2 µM | > 100 µM | 30.2 µM | > 100 µM | 40.8 µM | > 100 µM | 52.5 µM | > 100 µM | 7.31 µM | > 100 µM | 6.74 µM | > 60.6 µM
2 | C=C(CN1CCc2ccccc2C1)c1ccc(C(=O)Nc2cccc(N)c2)cc1 | 11.7 µM | 54.8 µM | 6 µM | 28.6 µM | 15.4 µM | 29.1 µM | 16.3 µM | > 100 µM | 31.1 µM | > 100 µM | 16 µM | 59.7 µM | 21.7 µM | 76.8 µM | 19 µM | 44 µM | 21.9 µM | > 100 µM | 20 µM | 51.2 µM
3 | COc1cccc(-c2cc(-c3ccc(Nc4nc(Nc5ccc(Cl)cc5)nc(Nc5ccc(Cl)cc5)n4)cc3)nc(N)c2C#N)c1 | 0.966 µM | 4.22 µM | 1.63 µM | 4.93 µM | 2.5 µM | 7.12 µM | 1.77 µM | > 27.9 µM | 1.9 µM | 3.98 µM | 1.52 µM | 4.31 µM | 14.7 µM | > 100 µM | 4.58 µM | 26.1 µM | 2.01 µM | 12 µM | 2.78 µM | 10.2 µM
4 | N=C(N)c1ccc(-c2ccc(-c3cccs3)s2)cc1F | 0.341 µM | 1.07 µM | 1.03 µM | 2.87 µM | 1.45 µM | 2.97 µM | 0.288 µM | 0.951 µM | 1.45 µM | 3.09 µM | 1.55 µM | 3.34 µM | 2 µM | 4.3 µM | 1.57 µM and 1.44 µM | 3.04 µM and 2.84 µM | 1.48 µM | 3.03 µM | 0.39 µM | 1.78 µM
5 | COc1ncc(-c2ccc3nc(N)n(-c4ccccc4C(F)(F)F)c(=O)c3c2)cc1S(=O)(=O)Nc1ccc(F)cc1F | 1.35 µM | 17.3 µM | 3.85 µM | 56.1 µM | 1.23 µM | 14.8 µM | 0.3 µM | 2.54 µM | 3.63 µM | 14.1 µM | – | – | 1.94 µM | 13.8 µM | 0.897 µM | > 100 µM | 1.71 µM | 73.7 µM | 1.41 µM | 17.5 µM
6 | Cc1ccc(CNc2ccc(Cl)cc2NCc2ccc(C)c(O)c2)cc1O | 5.75 µM | 18.2 µM | 3.34 µM | 14.7 µM | 5.78 µM | 12.6 µM | 6.75 µM | 21.9 µM | 7.21 µM | 14.2 µM | 5.42 µM | 11.7 µM | 8.3 µM | 17.8 µM | 7.71 µM | 14.4 µM | 6.33 µM | 13.3 µM | 8.24 µM | 15.2 µM
7 | CC1(C)CC[C@]2(C(=O)O)CC[C@]3(C)C(=CC[C@@H]4[C@@]5(C)C/C(=C/c6cccnc6)[C@H](O)C(C)(C)[C@@H]5CC[C@]43C)[C@@H]2C1 | 13.2 µM | > 100 µM | 2.63 µM | 26 µM | 16.7 µM | 51.3 µM | 3.02 µM | 18.8 µM | 11.1 µM | 35 µM | 4.64 µM | 19.2 µM | 9.82 µM | > 100 µM | 10.7 µM | > 100 µM | 2.66 µM | 72.4 µM | 4.3 µM | 87.4 µM
8 | CNC(=S)N/N=C/CSC/C=N/NC(=S)NC | 0.799 µM | > 100 µM | > 100 µM | > 100 µM | > 100 µM | > 100 µM | > 100 µM | > 100 µM | > 100 µM | > 100 µM | > 100 µM | > 100 µM | > 100 µM | > 100 µM | > 100 µM | > 100 µM | > 100 µM | > 100 µM | > 100 µM | > 100 µM
9 | CCCN1CCCC(c2ccc(Nc3nc(Nc4cc(F)ccc4C(N)=O)c4cc[nH]c4n3)c(OC)c2)C1 (centres undefined) | 0.0112 µM | 7.99 µM | 3.8 µM | 11.1 µM | 1.02 µM | 4.8 µM | 3.65 µM | 10.8 µM | 3.49 µM | 6.93 µM | 1.27 µM | 5.88 µM | 3.57 µM | 9.92 µM | 0.802 µM | 4.74 µM | 4.17 µM | 9.6 µM | 3.42 µM | 7.16 µM
10 | CCn1nc(C#Cc2c(C)ccc3c(Nc4ccc(Cl)cc4)nccc23)c2c(N)ncnc21 | 1.01 µM | > 100 µM | 4.32 µM | > 100 µM | 2.89 µM | > 100 µM | 3.77 µM | > 100 µM | 3.36 µM | > 100 µM | 2.09 µM | > 100 µM | 3.1 µM | 10.7 µM | 5.74 µM | > 100 µM | 3.03 µM | > 100 µM | 2.48 µM | 11.6 µM
11 | CC/C(=C\c1ccc(N(C)C)cc1)c1ccncc1 | 3.24 µM | 30.1 µM | 5.09 µM | > 100 µM | 4.37 µM | 54.6 µM | 5.13 µM | 55.2 µM | > 100 µM | > 100 µM | 6.57 µM | > 100 µM | 2.38 µM | 6.09 µM | 9.47 µM | > 100 µM | 10.3 µM | > 100 µM | 3.44 µM | 21.1 µM
12 | COc1cc2nc(NC3CCC3)nc(NC3CCN(C(C)C)CC3)c2cc1OC | 0.631 µM | 3.33 µM | 2.83 µM | 8.48 µM | 1.88 µM | 3.46 µM | 1.71 µM | 4.06 µM | 1.94 µM | 3.66 µM | 1.43 µM | 2.78 µM | 15.6 µM | 65 µM | 4.04 µM | 14.9 µM | 3.51 µM | 20.7 µM | 1.87 µM | 3.67 µM
13 | Cc1ccccc1C1N=C2Oc3ccccc3C=C2C(=O)N1 (centres undefined) | 14.5 µM | > 88.3 µM | 19 µM | > 100 µM | 0.826 µM | 7.66 µM | 62.9 µM | > 100 µM | 4.57 µM | > 100 µM | 7.5 µM | > 100 µM | 2.96 µM | > 87.8 µM | 2.09 µM | > 100 µM | 0.86 µM | > 100 µM | 1.46 µM | > 25.9 µM
14 | CC(C)OC(=O)OCOP(=O)(OCOC(=O)OC(C)C)C1CCCN(O)C1=O (centres undefined) | 1.25 µM | > 100 µM | 1.34 µM | > 100 µM | 2.67 µM | > 100 µM | 0.737 µM | 14.5 µM | 0.739 µM | 7.83 µM | 0.197 µM | 68.1 µM | 2.6 µM | > 100 µM | 3.83 µM | > 100 µM | 7.55 µM | > 100 µM | 7.14 µM | > 100 µM
15 | COC(=O)[C@@H](C)C[C@H](Cc1ccccc1)NC(=O)c1nc([C@@H](C[C@H](C(C)C)N(C)C(=O)[C@@H](NC(=O)[C@H]2CC(=O)CCN2C)C(C)C)OC(C)=O)sc1C(C)C | 0.021 µM | > 16.7 µM | 0.532 µM | > 16.7 µM | 0.217 µM | 1.18 µM | 0.056 µM | 4.38 µM | 0.524 µM | > 16.7 µM | 0.951 µM | > 10.5 µM | 4.11 µM | > 16.7 µM | 0.115 µM | > 5.55 µM | 0.129 µM | > 16.7 µM | 0.277 µM | 3.02 µM
16 | COc1cc(F)c(F)c(F)c1C(=O)c1cnc(NC2CCN(S(C)(=O)=O)CC2)nc1N | 0.371 µM | > 10 µM | 0.845 µM | 11.4 µM | 3.09 µM | 10.2 µM | 0.417 µM | 9.66 µM | 2.24 µM | 18.4 µM | 1.6 µM | 13.4 µM | 5.16 µM | > 25 µM | 2.58 µM | > 22 µM | 0.476 µM | 9.3 µM | 1.58 µM | > 9.45 µM
17 | CCN(CC)CCCC(C)Nc1ccnc2cc(OC)ccc12 (centres undefined) | 24.1 µM | > 100 µM | 25.9 µM | 74.5 µM | 16.7 µM | 30.4 µM | 18.6 µM | 42 µM | – | – | 16.4 µM | 34.6 µM | 91.1 µM | > 100 µM | 20.6 µM | 44.4 µM | 5.77 µM | 21.8 µM | 34.3 µM | > 100 µM
18 | NC1=Nc2cc(OCCCCN3Cc4ccccc4C3)c(OCC3CC3)cc2C12CCCC2 | 1.61 µM | 4.48 µM | 1.88 µM | 5.04 µM | 1.77 µM | 3.51 µM | 1.53 µM | 4.02 µM | – | – | 1.46 µM | 2.88 µM | 1.73 µM | 3.41 µM | 3.24 µM | 11.4 µM | 1.69 µM | 7.81 µM | 1.94 µM | 3.83 µM
